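Following 48 hours of exposure in 96-well plates, responses at five concentrations were used to interpolate endpoints linearly. TGI: concentration producing complete growth inhibition.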
Legend:
Test in all cases: inhibition of tumour cell growth, NCI panel, 48 h
[1] = test system: CCRF-CEM leukemia
[2] = test system: DU-145 prostate
[3] = test system: HL-60(TB) leukemia
[4] = test system: HOP-62 NSCLC
[5] = test system: OVCAR-5 ovarian
[6] = test system: OVCAR-8 ovarian
[7] = test system: SK-MEL-2 melanoma
[8] = test system: SR leukemia
[9] = test system: SW-620 colon
[10] = test system: U251 CNS
[11] = test system: LOX IMVI melanoma
[12] = test system: SNB-75 CNS

Row | SMILES | TGI [1] [µM] | TGI [2] [µM] | TGI [3] [µM] | TGI [4] [µM] | TGI [5] [µM] | TGI [6] [µM] | TGI [7] [µM] | TGI [8] [µM] | TGI [9] [µM] | TGI [10] [µM] | TGI [11] [µM] | TGI [12] [µM]
1 | CCOC(=O)c1c(NC(=O)c2ccc(Br)cc2)sc2c1CCCC2 | > 100 | > 100 | > 100 | > 100 | > 100 | > 100 | > 100 | > 100 | > 100 | > 100 |  | 
2 | Cc1cc(C(O)CNC(C)CCn2cnc3c2c(=O)n(C)c(=O)n3C)ccc1O (stereo not drawn) | > 100 | > 100 |  | > 100 | > 100 | > 100 | > 100 | > 100 | > 100 | > 100 | > 100 | > 100
3 | COC(=O)CCC1(O)C=CC(=O)C=C1 | > 100 | > 100 |  | > 100 | > 100 | > 100 | > 100 | > 100 | > 100 | 63.2 | > 100 | > 100
4 | CCSC12CC3c4cccc5c4C(CN5C(=O)c4ccccc4)CC3(O1)N(C)C2=O (stereo not drawn) | > 100 | > 100 | 55.7 |  | > 100 | > 100 | 89.5 | 77.6 | > 100 | > 100 | > 100 | > 100
5 | CC(=O)C1C(=O)C(=O)N(c2ccc(Br)cc2)C1=O (stereo not drawn) | > 100 | > 100 | > 100 | > 100 | > 100 | > 100 | > 100 |  | > 100 | > 100 | > 100 | > 100
6 | CN(C)Cc1[nH]c2ccccc2c1C(=O)c1ccccc1 | > 100 |  | > 100 | > 100 | > 100 | > 100 | > 100 | > 100 | > 100 | > 100 |  | 74.9
7 | COc1ccc(C2C(Cl)C(=O)N2NC(=O)c2ccccc2O)cc1OC (stereo not drawn) | > 100 |  | > 100 |  |  | > 100 | > 100 |  |  | > 100 | > 100 | 
8 | CN(C)C(=O)Oc1ccc(C(=S)Nc2ccccc2)cc1Br | 48.6 | > 100 | 39.6 | > 100 | > 100 | 39.4 | 71.5 | 63.3 | > 100 | > 100 | 45.8 | 
9 | c1cc(C[S+]2CCCC2)oc1C[S+]1CCCC1 | > 100 | > 100 |  | > 100 |  | > 100 |  |  | > 100 | > 100 | > 100 | > 100
10 | CC(=O)O/N=C/c1cc2c(cc1Br)OCO2 | > 349 |  | > 349 | > 349 | > 349 | > 349 | > 349 | > 349 | > 349 | > 34.9 | > 349 | 
11 | CC#Cc1c(C#CC)c(OC)c2c(c1OC)C(=O)c1ccccc1C2=O | > 100 |  | > 100 | 45.4 | > 100 | > 100 | > 100 | > 100 | > 100 | 48 | > 100 | 
12 | COC(=O)[C@@H]1[C@H](O)CC[C@H]2[C@@]1(C)CC[C@@H](C)[C@]2(COC(C)=O)CC(=O)c1ccoc1 | > 50 | > 50 | > 50 |  | > 50 | > 50 | > 50 | > 50 | > 50 | > 50 | > 50 | > 50
13 | Cc1ccc(F)c2c(=O)cc(-c3ccccc3)[nH]c12 | > 100 |  | > 100 | > 100 | > 100 | > 100 | > 100 | > 100 | > 100 | > 100 | > 100 | > 100
14 | CC1(C)N=C(Oc2ccccc2)n2nccc2N1 | > 100 |  | > 100 | > 100 | > 100 |  | > 100 | > 100 | > 100 | > 100 | > 100 | > 100
15 | CC(=O)Oc1cc(S(=O)(=O)Nc2n[nH]c(N)n2)c(S)cc1Cl | > 100 | > 100 | > 100 | > 100 | > 100 | > 100 | > 100 | > 100 | > 100 | > 100 | > 100 | 
16 | Cc1ccc(Nc2cn(COCc3ccccc3)c(=O)[nH]c2=O)cc1 | > 100 | > 100 | > 100 | > 100 | > 100 |  |  | > 100 | > 100 | > 100 | > 100 | 
17 | Cc1cc(C#N)c(Nc2ccccc2[N+](=O)[O-])s1 | > 100 | 78.8 |  | 90.9 | 62.9 | > 100 |  | > 100 | > 100 | 57.6 |  | > 100
18 | O=C1c2ccccc2C(=O)c2c(O)c(NCCNCCO)cc(O)c21 | 13.2 |  | 14.1 | 11.5 | 21.8 | 12.6 | 15.8 | 9.04 | 12 |  | 15.5 | 17.9
19 | Cc1ccccc1NC(=O)CSc1nnc(Cc2ccccc2)o1 | > 100 |  |  | > 100 | > 100 | > 100 | > 100 |  |  | > 100 | > 100 | > 100
20 | c1ccc(CSC(SCc2ccccc2)c2ccc3c(c2)OCO3)cc1 | > 10 | > 10 | > 10 | > 10 |  | > 10 | > 10 |  | > 10 | > 10 | > 10 | > 10
21 | Cc1[nH]c2ccccc2c1C1=CC(=O)N(c2ccccc2)C1=O | 73.4 | 52.5 | 39 | 25.5 | > 100 | 50 | 31.5 |  | 37.8 | 47.7 | 18.3 | 

From PubChem BioAssay (NCI)
